Laboratory results taken from patent publication US20070275007A1, “Carbohydrate Antigen-Nanoparticle Conjugates and Uses Thereof as Antimetastatic Agents in Treating Cancer” (The Government of the United States of America, represented …, priority 2003, published 2007).

Assay: Solubility in water and organic solvents
Assay type: physicochemical

solubility in chloroform (chloroform): moderately soluble | solubility in methanol (methanol (methanol and other organic solvents)): moderately soluble | solubility in water (water): soluble
SMILES: CC(=O)NC1[C@H](OCCCCCS)OC(CO)[C@H](O)[C@@H]1O[C@@H]1OC(CO)[C@H](O)[C@H](O)C1O (stereo partly drawn) [126E-23]
